One test deals with T1, Cellular ERK5 Activity (Homo sapiens, UniProt Q13164).
T1 construct: MEF2-response-element luciferase reporter (pGreenFire1)
Description: Inhibition of Cellular ERK5 Activity (cell-based assay, MEF2 luciferase reporter in SN12C cells). As to conditions: renal cancer cell line SN12C, doxycycline-induced MEK5DD, 0.3-10000 nM, mean where repeated. How it is done:
(§1) Two assays were performed to assess the ERK5 inhibitory activity of compounds of the Examples, a cell-based assay and a cell-free biochemical assay. Where repeat measurements were taken, the value reported is a mean average.
Inhibition of Cellular ERK5 Activity
The renal cancer cell line SN12C was transduced by a lentivirus pGreenFire1 MEF2 EF1 Neo (ref TR030VA-N) from SBI using standard infection protocol. pGreenFire1 MEF2 EF1 Neo allows the expression of luciferase gene under the control of minimal promoter with MEF2 transcriptional response elements. Cells harboring the reporter construct were selected by geneticin treatment. The selected cells were then transposed by a piggyback based plasmid pCM4007 allowing the expression of constitutively activated MEK5DD under control of TREG3 promoter, a doxycycline regulated promoter. Transposed cells were selected by puromycin treatment. Upon doxycycline treatment (1 μg/ml) MEK5DD was expressed. MEK5DD activates ERK5 that phosphorylates MEF2C protein. Activated MEF2C protein can bind to its transcriptional response elements. Then the luciferase is expressed. In a 96-well plate (96F nuncleon ref137101 thermofisher), 50,000 cells were inoculated in 142.5 μl of RPMI medium containing 10% fetal calf serum, 1% glutamine, and 1 μg/ml doxycycline. After 24 hours, compounds were added in 7.5 μl culture medium (with 2% DMSO to give a final concentration of 0.1%) in order to obtain the desired concentration (0.3-10000 nM). The luciferase activity was measured using the Kit Bright Glo Luminescent Cell Assay Cat E2610 (Promega) according to the manufacturer's protocol. Luminescence was determined using 0.2 second reading/well using a Tecan SPARK. IC50 values were calculated using XLFIT5 for Microsoft Excel using method 205. The IC50 values represent the concentration of compound which inhibits the measurable luminescence signal by 50% as compared to DMSO-treated control cells.

For test [1], the target named is T2, activated catalytic domain of protein ERK5 (Homo sapiens, UniProt Q13164).
T2 construct: purchased CarnaBiosciences #04-146
Put plainly: Cell-Free Assay of ERK5 Inhibition (Time-Resolved Forster Resonance Energy Transfer). The class given is biochemical. As to conditions: ERK5 4 nM, 1 mM ATP, 1 μM biotinylated 4EBP1 peptide, 30 min at 37° C.; TR-FRET; mean where repeated. How it is done: as §1
Cell-Free Assay of ERK5 Inhibition
An assay was performed to measure the capacity of each compound to inhibit ERK5 enzymatic activity. Compound potency was evaluated by Time-Resolved Forster Resonance Energy Transfer (FRET system). The activated catalytic domain of protein ERK5 (CarnaBiosciences #04-146) was mixed at 4 nM with varying concentrations of compound and incubated for 30 minutes at room temperature. A mixture of 1 mM ATP and 1 μM biotinylated synthetic peptide was added (Biosyntan GmbH). This synthetic peptide represents amino acids 30-52 of Eukaryotic translation initiation factor 4E-binding protein 1 (see, e.g., the sequence under accession No. NP_004086.1) biotinylated at the N-terminus. After 30 minutes at 37° C., the peptide phosphorylation by ERK5 was measured by addition of FRET reagents consisting of 12.5 µg/ml Streptavidin-XL665, 1 nM Anti-P-4EBP1 antibody and 300 ng/ml Anti-rabbit-K antibody. Following 90 minutes at room temperature fluorescent signals were read on the Pherastar FSX multimod detector from BMG Labtech (Exc° 340 nm, Em1 620 nm, Em2 665 nm). The IC50 values represent the concentration of compound which inhibits the measurable fluorescence signal by […] as compared to the DMSO only control.

T2 sequence (Q13164 55-347 limits assumed): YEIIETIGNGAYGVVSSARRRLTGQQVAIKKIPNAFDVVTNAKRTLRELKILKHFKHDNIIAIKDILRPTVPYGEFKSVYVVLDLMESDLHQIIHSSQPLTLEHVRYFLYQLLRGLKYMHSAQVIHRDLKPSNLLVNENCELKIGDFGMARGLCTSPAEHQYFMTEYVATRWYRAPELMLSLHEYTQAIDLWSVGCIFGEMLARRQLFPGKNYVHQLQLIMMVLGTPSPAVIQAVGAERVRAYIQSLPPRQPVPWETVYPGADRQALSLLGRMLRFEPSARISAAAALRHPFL
T1 sequence (Q13164 whole entry): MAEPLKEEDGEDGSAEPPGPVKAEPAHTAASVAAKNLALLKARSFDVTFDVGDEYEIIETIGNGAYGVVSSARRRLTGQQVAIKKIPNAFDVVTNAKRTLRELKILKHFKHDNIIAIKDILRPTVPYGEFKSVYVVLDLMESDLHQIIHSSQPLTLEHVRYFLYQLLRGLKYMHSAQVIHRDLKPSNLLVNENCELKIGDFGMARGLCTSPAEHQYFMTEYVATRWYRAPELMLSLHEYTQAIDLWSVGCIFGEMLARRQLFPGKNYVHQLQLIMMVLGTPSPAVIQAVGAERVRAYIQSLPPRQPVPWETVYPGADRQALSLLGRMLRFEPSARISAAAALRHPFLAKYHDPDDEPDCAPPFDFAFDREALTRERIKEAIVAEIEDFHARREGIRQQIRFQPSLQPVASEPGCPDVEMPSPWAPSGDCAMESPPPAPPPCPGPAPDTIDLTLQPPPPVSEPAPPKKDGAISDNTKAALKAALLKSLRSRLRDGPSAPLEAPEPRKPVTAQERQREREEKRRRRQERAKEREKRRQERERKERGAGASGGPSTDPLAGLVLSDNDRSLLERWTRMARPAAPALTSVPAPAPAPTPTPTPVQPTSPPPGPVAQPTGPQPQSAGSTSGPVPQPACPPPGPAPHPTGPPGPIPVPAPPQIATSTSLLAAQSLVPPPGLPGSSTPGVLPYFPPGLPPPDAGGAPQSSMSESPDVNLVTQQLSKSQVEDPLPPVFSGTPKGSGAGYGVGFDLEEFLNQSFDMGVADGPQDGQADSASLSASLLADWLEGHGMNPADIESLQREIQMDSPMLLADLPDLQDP

With `O=C(c1ccc(OC(F)(F)F)cc1)N1CCC(c2c[nH]c3ncc(N4CCC(F)(F)CC4)nc23)CC1` [Example 41, [4-[2-(4,4-difluoro-1-piperidyl)-5H-pyrrolo[2,3-b]pyrazin-7-yl]-1-piperidyl]-[4-(trifluoromethoxy)phenyl]methanone], the IC50 against Cellular ERK5 Activity is 308 nM; in test [1], over 30000 nM.

As to `O=C(c1ccc(C(O)(C(F)(F)F)C(F)(F)F)cc1)N1CCC(c2c[nH]c3ncc(C4CCOCC4)nc23)CC1` [Example 42, [4-(2-tetrahydropyran-4-yl-5H-pyrrolo[2,3-b]pyrazin-7-yl)-1-piperidyl]-[4-[2,2,2-trifluoro-1-hydroxy-1-(trifluoromethyl)ethyl]phenyl]methanone], the 50% inhibitory concentration (IC50) against Cellular ERK5 Activity is 480 nM; in test [1] it was over 30000 nM.

On to `Nc1cc(OC(F)(F)F)ccc1C(=O)N1CCC(c2c[nH]c3ncc(OC4COC4)nc23)CC1` [Example 44, [2-amino-4-(trifluoromethoxy)phenyl]-[4-[2-(oxetan-3-yloxy)-5H-pyrrolo[2,3-b]pyrazin-7-yl]-1-piperidyl]methanone], for which the IC50 against Cellular ERK5 Activity turned out to be 272 nM; in test [1], 639 nM.

Broadly, the IC50 is the concentration needed to halve the response being measured. A higher IC50 goes with a need for much substance.

The record behind these values is US20260308157A1, “Pyrrolopyrazine Compounds, Preparation Thereof and Therapeutic Uses Thereof” (Sanofi, priority 2023, published 2026).
